Experiments:
[1] = test system: apparently healthy men (US male physicians); test: Physicians' Health Study: randomized, double-blind, placebo controlled trial of aspirin in primary prevention; risk of first myocardial infarction, stratified by baseline C-reactive protein quartile; format: in vivo, human; conditions: 325 mg aspirin on alternate days vs placebo, events prior to Jan. 25, 1988
Experimental: The Physicians' Health Study is a randomized, double-blind, placebo controlled, 2×2 factorial trial of aspirin and beta-carotene in the primary prevention of cardiovascular disease and cancer. A total of 22,071 US male physicians aged 40 to 84 years in 1982 with no history of myocardial infarction, stroke, transient ischemic attack, or cancer were assigned to one of four treatment groups: 325 mg aspirin on alternate days (Bufferin, provided by Bristol-Myers), 50 mg of beta-carotene on alternate days (Lurotin, provided by BASF Corporation), both, or neither. The aspirin component of the PHS was terminated early on Jan. 25, 1988 primarily due to a statistically extreme 44 percent reduction in risk of first infarction in the aspirin group.^1 The beta-carotene component continued to scheduled termination on Dec. 31, 1995.^2 Hospital records (and for fatal events, death certificates and necropsy reports) were requested for all reported cases of myocardial infarction, stroke, and venous thrombosis. Records were reviewed by a committee of physicians using standardized criteria to confirm or refute reported events. Endpoints reviewers were blinded to treatment assignment. Reported myocardial infarction was confirmed if the event met World Health Organization criteria of symptoms plus either elevated enzymes or characteristic electrocardiographic changes. Silent myocardial infarctions were not included since they could not be dated accurately. Deaths due to coronary disease were confirmed based on autopsy reports, symptoms, circumstances of death, and prior history of coronary disease. Reported stroke was confirmed based on medical records showing neurological deficit of sudden or rapid onset persisting for more than 24 hours or until death. Strokes were classified as ischemic or hemorrhagic. Computed tomography was available for more than 95 percent of confirmed strokes. Reported deep venous thrombosis was confirmed by documentation of a positive venography study or a positive ultrasound study; deep venous thrombosis documented only by impedance plethysmography or Doppler examination without ultrasound were not confirmed. […] Using these methods, we evaluated 543 cases and 543 controls in this prospective nested case-control design. Means or proportions for baseline risk factors were calculated for cases and controls. […] Because C-reactive protein levels are skewed, median levels were computed and the significance of any differences in median values between cases and controls assessed using Wilcoxon's Rank Sum Test. […] Similar models were employed to adjust for measured baseline levels of total and HDL cholesterol, triglyceride, lipoprotein(a), tPA antigen, fibrinogen, D-dimer, and homocysteine. […]

[2] = test system: apparently healthy men (US male physicians); conditions: whole trial population, 325 mg aspirin on alternate days vs placebo (reference 1); cited from earlier work

CC(=O)Oc1ccccc1C(=O)O [aspirin]
reduction in risk of myocardial infarction associated with aspirin use ([1]; first (lowest) quartile of baseline C-reactive protein): 13.9%
reduction in risk of myocardial infarction associated with aspirin use ([1]; fourth (highest) quartile of baseline C-reactive protein): 55.7%
reduction in risk of myocardial infarction associated with aspirin use ([1]; second quartile of baseline C-reactive protein): 33.4%
reduction in risk of myocardial infarction associated with aspirin use ([1]; third quartile of baseline C-reactive protein): 46.3%
reduction in risk of first infarction in the aspirin group [2]: 44%
